The values that follow come from patent US6982348B2, “Aminoethanol derivatives” (Takeda Pharmaceutical Company Limited, priority 2001, dated 2006).

Molecules are shown by their SMILES.

As usually defined, the melting point is the temperature, or range, at which the solid turns liquid. In the case of `O=C(N[C@H](Cc1ccc(C(F)(F)F)cc1)[C@@H](O)c1ccc(F)cc1)c1cc(Cl)cc2ccccc12` (racemic) [Example 76, 3-chloro-N-[(1RS,2SR)-2-(4-fluorophenyl)-2-hydroxy-1-[4-(trifluoromethyl)benzyl]ethyl]naphthalene-1-carboxamide], the melting point fell in the range of 220 to 221 °C.
The compound `O=C(N[C@H](Cc1cccc(OC(F)(F)F)c1)[C@@H](O)c1ccc(F)cc1)c1ccc(F)c2ccccc12` (racemic) [Example 132, 4-fluoro-N-[(1RS,2SR)-2-(4-fluorophenyl)-2-hydroxy-1-[3-(trifluoromethoxy)benzyl]ethyl]naphthalene-1-carboxamide] came in with a melting point of 189 to 190 °C.
In the case of `CC(C)(C)COc1cccc(C[C@@H](NC(=O)c2cccc3c2C=CCCC3)[C@@H](O)c2cccc(Cl)c2)c1` (racemic) [Example 368, N-[(1RS,2SR)-1-[3-(neopentyloxy)benzyl]-2-(3-chlorophenyl)-2-hydroxyethyl]-6,7-dihydro-5H-benzo[a]cycloheptene-1-carboxamide], the melting point was 128 to 129 °C.
The same measure for `O=C(N[C@H](Cc1ccc(C(F)(F)F)cc1)[C@@H](O)c1ccc(F)cc1)C(F)(F)F` (racemic) [Example 70, N-[(1RS,2SR)-2-(4-fluorophenyl)-2-hydroxy-1-[4-(trifluoromethyl)benzyl]ethyl]-2,2,2-trifluoroacetamide]: 162 to 163 °C; for `CC1(C)CCC=Cc2c(C(=O)N[C@H](Cc3cccc(OC(F)(F)C(F)F)c3)[C@@H](O)c3ccc(F)cc3)cccc21` (racemic) [Example 305, N-[(1RS,2SR)-2-(4-fluorophenyl)-2-hydroxy-1-[3-(1,1,2,2-tetrafluoroethoxy)benzyl]ethyl]-5,5-dimethyl-6,7-dihydro-5H-benzo[a]cycloheptene-1-carboxamide]: 101 to 104 °C.
As to `O=C(CCCc1ccccc1)N[C@H](Cc1ccccc1C(F)(F)F)[C@@H](O)c1ccc(F)cc1` (racemic) [Example 143, N-((1RS,2SR)-2-(4-fluorophenyl)-2-hydroxy-1-((2-(trifluoromethyl)phenyl)methyl)ethyl)-4-phenylbutyramide], the melting point fell in the range of 161 to 162 °C.
`CC(C)NC(=O)c1ccc([C@H](O)[C@@H](Cc2cccc(OC(F)(F)C(F)F)c2)NC(=O)c2cccc3c2C=CCCC3)cc1` (racemic) [Example 315, N-[(1RS,2SR)-2-hydroxy-2-[4-[(isopropylamino)carbonyl]phenyl]-1-[3-(1,1,2,2-tetrafluoroethoxy)benzyl]ethyl]-6,7-dihydro-5H-benzo[a]cycloheptene-1-carboxamide] registered a melting point of 215 to 217 °C.
To `O=C(Cc1cccc2ccccc12)N[C@H](Cc1ccc(C(F)(F)F)cc1)[C@@H](O)c1ccc(F)cc1` (racemic) [Example 82, N-((1RS,2SR)-2-(4-fluorophenyl)-2-hydroxy-1-((4-(trifluoromethyl)phenyl)methyl)ethyl)-2-(1-naphthalenyl)acetamide] belongs 186 to 187 °C; to `O=C(N[C@H](Cc1cccc(OC(F)(F)C(F)F)c1)[C@@H](O)c1ccc(-c2cccc(Cl)c2)cc1)c1cccc2c1C=CCCC2` (racemic) [Example 295, N-[(1RS,2SR)-2-(3′-chloro[1,1′-biphenyl]-4-yl)-2-hydroxy-1-[3-(1,1,2,2-tetrafluoroethoxy)benzyl]ethyl]-6,7-dihydro-5H-benzo[a]cycloheptene-1-carboxamide], 131 to 132 °C; to `O=C(N[C@H](Cc1ccc(C(F)(F)F)cc1)[C@@H](O)c1ccc(F)cc1)c1cccc2cc3ccccc3cc12` (racemic) [Example 66, N-((1RS,2SR)-2-(4-fluorophenyl)-2-hydroxy-1-((4-(trifluoromethyl)phenyl)methyl)ethyl)-1-anthracenecarboxamide], 227 to 228 °C.
In turn, `CC(=O)O[C@H](c1ccc(F)cc1)[C@H](Cc1cccc(OC(F)(F)C(F)F)c1)NC(=O)c1cccc2c1C=CCCC2` (racemic) [Example 382, (1RS,2SR)-2-[(6,7-dihydro-5H-benzo[a]cyclohepten-1-ylcarbonyl)amino]-1-(4-fluorophenyl)-3-[3-(1,1,2,2-tetrafluoroethoxy)phenyl]propyl acetate] returned a melting point of 176 to 177 °C.
With `N#Cc1ccc(C[C@@H](NC(=O)c2ccc(F)c3ccccc23)[C@@H](O)c2ccc(F)cc2)cc1` (racemic) [Example 153, N-[(1RS,2SR)-1-(4-cyanobenzyl)-2-(4-fluorophenyl)-2-hydroxyethyl]-4-fluoronaphthalene-1-carboxamide], the melting point is 248 to 249 °C.
The same measure for `CC(F)(F)c1cccc(C[C@@H](NC(=O)c2ccc(F)c3ccccc23)[C@@H](O)c2ccc(F)cc2)c1` (racemic) [Example 359, N-[(1RS,2SR)-1-[3-(1,1-difluoroethyl)benzyl]-2-(4-fluorophenyl)-2-hydroxyethyl]-4-fluoro-1-naphthamide]: 182 to 183 °C; for `CCOC(=O)N[C@H](Cc1cccc(OC(F)(F)C(F)F)c1)[C@@H](O)c1ccc(F)cc1` (racemic) [Example 129, ethyl N-[(1RS,2SR)-2-(4-fluorophenyl)-2-hydroxy-1-[3-(1,1,2,2-tetrafluoroethoxy)benzyl]ethyl]carbamate]: 113 to 114 °C; for `O=C(N[C@H](Cc1cccc(S(=O)(=O)C(F)(F)F)c1)[C@@H](O)c1ccc(F)cc1)c1ccc(F)c2ccccc12` (racemic) [Example 281, 4-fluoro-N-((1RS,2SR)-2-(4-fluorophenyl)-2-hydroxy-1-{3-[(trifluoromethyl)sulfonyl]benzyl}ethyl)-1-naphthamide]: 157 to 158 °C.
Turning to `CC(=CC(=O)N[C@H](Cc1ccc(C(F)(F)F)cc1)[C@@H](O)c1ccc(F)cc1)C(F)(F)F` (racemic) [Example 49, 4,4,4-trifluoro-N-[(1RS,2SR)-2-(4-fluorophenyl)-2-hydroxy-1-[4-(trifluoromethyl)benzyl]ethyl]-3-methyl-2-butenamide], the melting point was in the range of 182 to 183 °C.
As to `O=C(CCCCc1ccccc1)N[C@H](Cc1ccc(C(F)(F)F)cc1)[C@@H](O)c1ccc(F)cc1` (racemic) [Example 99, N-((1RS,2SR)-2-(4-fluorophenyl)-2-hydroxy-1-((4-(trifluoromethyl)phenyl)methyl)ethyl)-5-phenylpentanamide], the melting point was in the range of 152 to 153 °C.
To `CC(C)(C)COc1cccc(C[C@@H](NC(=O)c2ccc(F)c3ccccc23)[C@@H](O)c2cccc(Cl)c2)c1` (racemic) [Example 366, N-[(1RS,2SR)-1-[3-(neopentyloxy)benzyl]-2-(3-chlorophenyl)-2-hydroxyethyl]-4-fluoro-1-naphthamide] belongs 165 to 166 °C; to `O=C(N[C@H](Cc1cccc(OC(F)(F)C(F)F)c1)[C@@H](O)c1ccc(Oc2cccnc2)cc1)c1ccc(F)c2ccccc12` (racemic) [Example 262, 4-fluoro-N-{(1RS,2SR)-2-hydroxy-2-[4-(pyridin-3-yloxy)phenyl]-1-[3-(1,1,2,2-tetrafluoroethoxy)benzyl]ethyl}-1-naphthamide], 183 to 184 °C; to `O=C(N[C@H](Cc1cc(OC(F)(F)C(F)F)no1)[C@@H](O)c1ccc(F)cc1)c1cccc2c1C=CCCC2` (racemic) [Example 320, N-[(1RS,2SR)-2-(4-fluorophenyl)-2-hydroxy-1-[[3-(1,1,2,2-tetrafluoroethoxy)isoxazol-5-yl]methyl]ethyl]-6,7-dihydro-5H-benzo[a]cycloheptene-1-carboxamide], 127 to 128 °C.
To `O=C(N[C@H](Cc1cccc(OC(F)(F)C(F)F)c1)[C@@H](O)c1ccc(-c2ccc(CO)cc2)cc1)c1cccc2c1C=CCCC2` (racemic) [Example 304, N-[(1RS,2SR)-2-[4′-(hydroxymethyl)[1,1′-biphenyl]-4-yl]-2-hydroxy-1-[3-(1,1,2,2-tetrafluoroethoxy)benzyl]ethyl]-6,7-dihydro-5H-benzo[a]cycloheptene-1-carboxamide] belongs 189 to 191 °C; to `O=C(N[C@H](Cc1ccc(C(F)(F)F)cc1)[C@@H](O)c1ccc(F)cc1)c1ccc(Br)c2ccccc12` (racemic) [Example 43, 4-bromo-N-[(1RS,2SR)-2-(4-fluorophenyl)-2-hydroxy-1-[4-(trifluoromethyl)benzyl]ethyl]naphthalene-1-carboxamide], 229 to 231 °C; to `CC1(C)COc2ccc(C[C@@H](NC(=O)c3cccc4c3C=CCCC4)[C@@H](O)c3cccc(Cl)c3)cc21` (racemic) [Example 377, N-{(1RS,2SR)-2-(3-chlorophenyl)-1-[(3,3-dimethyl-2,3-dihydro-1-benzofuran-5-yl)methyl]-2-hydroxyethyl}-6,7-dihydro-5H-benzo[a]cycloheptene-1-carboxamide], 149 to 150 °C.
The same measure for `COc1ccc([C@H](O)[C@@H](Cc2ccc(C(F)(F)F)cc2)NC(=O)c2ccc(F)c3ccccc23)cc1` (racemic) [Example 192, 4-fluoro-N-((1RS,2SR)-2-hydroxy-2-(4-methoxyphenyl)-1-((4-(trifluoromethyl)phenyl)methyl)ethyl)-1-naphthalenecarboxamide]: 184 to 185 °C.
Compound `CC(C)(C)OC(=O)N[C@H](Cc1cccc(OC(F)(F)C(F)F)c1)[C@@H](O)c1ccc(Oc2cccnc2)cc1` (racemic) [Example 260, tert-butyl (1RS,2SR)-2-hydroxy-2-[4-(pyridin-3-yloxy)phenyl]-1-[3-(1,1,2,2-tetrafluoroethoxy)benzyl]ethylcarbamate] displayed a melting point of 123 to 124 °C.
In turn, `COc1ccc(C[C@@H](NC(=O)c2cccc3ccccc23)[C@@H](O)c2ccc(F)cc2)cc1` (racemic) [Example 148, N-((1RS,2SR)-2-(4-fluorophenyl)-2-hydroxy-1-((4-(methyloxy)phenyl)methyl)ethyl)-1-naphthalenecarboxamide] displayed a melting point of 198 to 199 °C.
